From PubChem BioAssay AID2060626 (Molecular Pharmacology Branch, DTP, NCI, 2025)

Tested on: 168753-222-R-J1-PDC complex spheroid viability
Assay: Anticancer human tumor 168753-222-R-J1-PDC patient-derived bladder carcinoma cell line growth inhibition [CLK]
Details: for IC50: curve of first compound; for viability, T/C: stronger effect = lower value
Procedure, shortened: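 Patient-derived tumor cells grown as complex spheroids with HUVEC endothelial cells and mesenchymal stem cells, treated with drug combinations. Concentrations descend in half-log steps from near clinical Cmax, or from 10 microM if Cmax unknown.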
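Further: viability measured after seven days of drug exposure.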
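Wherever viability, T/C is given: luminescence signal used as surrogate for viable cell amount; 100% = DMSO vehicle control wells.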

SMILES: O=c1[nH]cc(F)c(=O)[nH]1 + CNC(=O)c1ccc(Nc2nc(OC3CCCC3)c3c(-c4ccc5nc(C)oc5c4)c[nH]c3n2)c(OC)c1
- IC50 (second compound 0.0316 µM): > 10 µM
- IC50 (second compound 0.1 µM): > 10 µM
- IC50 (second compound 0.316 µM): > 10 µM
- IC50 (second compound 1 µM): < 0.0316 µM
- IC50 (second compound 3.16 µM): < 0.0316 µM
- IC50 (second compound 10 µM): < 0.0316 µM
- viability, T/C (second compound 0.0316 µM, first compound 0.0316 µM): 110%
- viability, T/C (second compound 0.0316 µM, first compound 0.1 µM): 113%
- viability, T/C (second compound 0.0316 µM, first compound 0.316 µM): 106%
- viability, T/C (second compound 0.0316 µM, first compound 1 µM): 108%
- viability, T/C (second compound 0.0316 µM, first compound 3.16 µM): 92.3%
- viability, T/C (second compound 0.0316 µM, first compound 10 µM): 98.5%
- viability, T/C (second compound 0.1 µM, first compound 0.0316 µM): 92.3%
- viability, T/C (second compound 0.1 µM, first compound 0.1 µM): 94.8%
- viability, T/C (second compound 0.1 µM, first compound 0.316 µM): 86.8%
- viability, T/C (second compound 0.1 µM, first compound 1 µM): 115%
- viability, T/C (second compound 0.1 µM, first compound 3.16 µM): 90.4%
- viability, T/C (second compound 0.1 µM, first compound 10 µM): 85.1%
- viability, T/C (second compound 0.316 µM, first compound 0.0316 µM): 83.6%
- viability, T/C (second compound 0.316 µM, first compound 0.1 µM): 77.3%
- viability, T/C (second compound 0.316 µM, first compound 0.316 µM): 66.5%
- viability, T/C (second compound 0.316 µM, first compound 1 µM): 73.4%
- viability, T/C (second compound 0.316 µM, first compound 3.16 µM): 68.8%
- viability, T/C (second compound 0.316 µM, first compound 10 µM): 67%
- viability, T/C (second compound 1 µM, first compound 0.0316 µM): 42.1%
- viability, T/C (second compound 1 µM, first compound 0.1 µM): 36%
- viability, T/C (second compound 1 µM, first compound 0.316 µM): 27.9%
- viability, T/C (second compound 1 µM, first compound 1 µM): 28.2%
- viability, T/C (second compound 1 µM, first compound 3.16 µM): 31.7%
- viability, T/C (second compound 1 µM, first compound 10 µM): 27.7%
- viability, T/C (second compound 3.16 µM, first compound 0.0316 µM): 20.3%
- viability, T/C (second compound 3.16 µM, first compound 0.1 µM): 18.1%
- viability, T/C (second compound 3.16 µM, first compound 0.316 µM): 19.9%
- viability, T/C (second compound 3.16 µM, first compound 1 µM): 15.6%
- viability, T/C (second compound 3.16 µM, first compound 3.16 µM): 18.4%
- viability, T/C (second compound 3.16 µM, first compound 10 µM): 24.6%
- viability, T/C (second compound 10 µM, first compound 0.0316 µM): 17.1%
- viability, T/C (second compound 10 µM, first compound 0.1 µM): 17.1%
- viability, T/C (second compound 10 µM, first compound 0.316 µM): 18.7%
- viability, T/C (second compound 10 µM, first compound 1 µM): 15.7%
- viability, T/C (second compound 10 µM, first compound 3.16 µM): 18.6%
- viability, T/C (second compound 10 µM, first compound 10 µM): 23.5%
